Structures are written as SMILES. pIC50: −log10 of the molar value.

The target in data set [1] is binding between Nrf2 and Keap1 (Homo sapiens (Human), UniProt Q14145). The data set is described as follows: FP assay (in vitro): inhibition of Nrf2-Keap1 binding by fluorescence polarization. The settings on record: GST-fused human Keap1 (325-642) 20 nM, FITC-labeled Nrf2 peptide 10 nM, 2 hr at room temperature. (In general: Fluorescence polarisation rises when a labelled molecule tumbles more slowly, as on binding a larger partner.)

For data set [2], the system named is NQO1 activity in Hepa1c1c7 cells. The data set is described as follows: NAD(P)H: quinone oxidoreductase-1 (NQO1) enzyme induction assay (in vitro). The settings on record: Mus musculus, Hepa-1c1c7, NQO1 activity with 400 nM test compound as a ratio from the base without compound, about 48 hr. It counts as cell-based, mouse. The essentials:
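Mouse Hepa1c1c7 hepatoma cells treated 48 hr with 400 nM compound (final). NQO1 activity in lysates read by absorbance at 610 nm; value is background-subtracted activity ratio versus untreated cells.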

Data set [3] is described as follows: Measurement test of plasma drug concentration after oral administration in rats. It counts as in vivo. The settings on record: male SD rats, 10 mg/2 mL/kg in 0.5% methylcellulose; for AUC(0-t): rat, plasma, 10 mg/kg, read-out: AUC0-24. Here is the method:
10 mg/2 mL/kg of the test compound suspended in 0.5% methylcellulose solution were force-fed to Male SD rats (7 weeks old, Japan SLC). Blood was collected from the jugular vein using a syringe with heparin at 0.5, 1, 2, 4, 6, and 24 hr after administration. After blood collection, to 20 μL of centrifuged plasma was added an equal volume of acetonitrile followed by 200 μL of internal standard (IS) solution. After agitation, all the supernatant after centrifugation was filtered, and the collected filtrate was used as the assay sample. Equal volumes of the test compound solution prepared in acetonitrile were added to blank plasma, and the samples processed in the same manner as above were used as samples for the calibration curve. The prepared samples were measured using LC/MS/MS, and the area under the blood concentration-time curve (AUC) was calculated from the compound concentration in plasma.

Sequence of binding between Nrf2 and Keap1 (Q14145 325-624 limits assumed): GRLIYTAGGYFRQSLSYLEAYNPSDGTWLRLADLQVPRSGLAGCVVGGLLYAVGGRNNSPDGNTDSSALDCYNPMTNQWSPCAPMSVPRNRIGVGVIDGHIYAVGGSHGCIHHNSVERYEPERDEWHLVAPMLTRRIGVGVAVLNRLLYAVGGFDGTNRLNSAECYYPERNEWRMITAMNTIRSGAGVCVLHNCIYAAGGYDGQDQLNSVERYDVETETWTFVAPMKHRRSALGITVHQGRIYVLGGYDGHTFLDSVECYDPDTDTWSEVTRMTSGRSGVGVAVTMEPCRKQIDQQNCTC

Regarding `CC[C@@H]1CN(Cc2cc([C@H](CC(=O)O)c3ccc4c(nnn4C)c3C)cc3c2CCC3)S(=O)(=O)c2cc(Cl)cnc2O1` [Example 4, (3S)-3-(7-{[(4R)-8-Chloro-4-ethyl-1,1-dioxido-3,4-dihydro-2H-pyrido[2,3-b][1,4,5]oxathiazepin-2-yl]methyl}-2,3-dihydro-1H-inden-5-yl)-3-(1,4-dimethyl-1H-benzotriazol-5-yl)propanoic acid], in data set [1], the pIC50 (as a rule, −log10 of the IC50, conventionally taken in molar units) was ≥ 8.00. Further, the fold induction (commonly the signal under treatment as a multiple of the control signal) at 0.4 µM in data set [2] is > 5. For the same compound, in data set [3], the “maximam plasma concentration” value stood at 0.029 µM and the AUC(0-t) stood at 0.05 µM·h.
In the same order, the values of `CC[C@@H]1CN(Cc2cc([C@@H](CC(=O)O)c3ccc4c(nnn4C)c3C)cc3c2CCC3)S(=O)(=O)c2cc(Cl)cnc2O1` [Example 5, (3R)-3-(7-{[(4R)-8-Chloro-4-ethyl-1,1-dioxido-3,4-dihydro-2H-pyrido[2,3-b][1,4,5]oxathiazepin-2-yl]methyl}-2,3-dihydro-1H-inden-5-yl)-3-(1,4-dimethyl-1H-benzotriazol-5-yl)propanoic acid] are 7.52 to 8.00, > 5, 0.006 µM and 0.035 µM·h.
For `CC[C@@H]1CN(Cc2cc([C@H](CC(=O)O)c3ccc4c(nnn4C)c3C)cc3ccsc23)S(=O)(=O)c2cc(Cl)cnc2O1` [Example 7, (3S)-3-(7-{[(4R)-8-Chloro-4-ethyl-1,1-dioxido-3,4-dihydro-2H-pyrido[2,3-b][1,4,5]oxathiazepin-2-yl]methyl}-1-benzothiophen-5-yl)-3-(1,4-dimethyl-1H-benzotriazol-5-yl)propanoic acid], the pIC50 in data set [1] was ≥ 8.00. The fold induction at 0.4 µM in data set [2] was > 5. Also, in data set [3], the “maximam plasma concentration” value amounted to 0.009 µM and the AUC(0-t) came to 0.03 µM·h.
Taken in the same sequence, the figures for `CC[C@@H]1CN(Cc2cc([C@@H](CC(=O)O)c3ccc4c(nnn4C)c3C)cc3ccsc23)S(=O)(=O)c2cc(Cl)cnc2O1` [Example 8, (3R)-3-(7-{[(4R)-8-Chloro-4-ethyl-1,1-dioxido-3,4-dihydro-2H-pyrido[2,3-b][1,4,5]oxathiazepin-2-yl]methyl}-1-benzothiophen-5-yl)-3-(1,4-dimethyl-1H-benzotriazol-5-yl)propanoic acid] were ≥ 8.00, > 5, 0.005 µM and 0.023 µM·h.
For the compound `CC[C@@H]1CN(Cc2cc(C(CC(=O)O)c3cc(C4CC4)c4c(nnn4C)c3C)cc3[nH]ccc23)[C@@H](C)c2ncccc2O1` (stereo partly drawn) [Example 104, 3-(7-Cyclopropyl-1,4-dimethyl-1H-benzotriazol-5-yl)-3-(4-{[(2R,5S)-2-ethyl-5-methyl-2,3-dihydropyrido[2,3-f][1,4]oxazepin-4(5H)-yl]methyl}-1H-indol-6-yl)propanoic acid], the pIC50 in data set [1] is 7.52 to 8.00. Besides, the fold induction at 0.4 µM in data set [2] was > 5.
Regarding `CC[C@@H]1CN(Cc2cc([C@@H](CC(=O)O)c3cc(C4CC4)c4c(nnn4C)c3C)cc3c2CCC3)[C@@H](C)c2ncccc2O1` [Example 105, (3R)-3-(7-Cyclopropyl-1,4-dimethyl-1H-benzotriazol-5-yl)-3-(7-{[(2R,5S)-2-ethyl-5-methyl-2,3-dihydropyrido[2,3-f][1,4]oxazepin-4(5H)-yl]methyl}-2,3-dihydro-1H-inden-5-yl)propanoic acid], the pIC50 in data set [1] was 7.52 to 8.00. The fold induction at 0.4 µM in data set [2] is > 5.
In the case of `CC[C@@H]1CN(Cc2cc([C@H](CC(=O)O)c3cc(C4CC4)c4c(nnn4C)c3C)cc3c2CCC3)[C@@H](C)c2ncccc2O1` [Example 106, (3S)-3-(7-Cyclopropyl-1,4-dimethyl-1H-benzotriazol-5-yl)-3-(7-{[(2R,5S)-2-ethyl-5-methyl-2,3-dihydropyrido[2,3-f][1,4]oxazepin-4(5H)-yl]methyl}-2,3-dihydro-1H-inden-5-yl)propanoic acid], the pIC50 in data set [1] was ≥ 8.00. Moreover, the fold induction at 0.4 µM in data set [2] was > 5.
Taken in the same sequence, the figures for `CC[C@@H]1CN(Cc2cc(C(CC(=O)O)c3cc(C4CC4)c4c(nnn4C)c3C)cc3c2OCC3)[C@@H](C)c2ncccc2O1` (stereo partly drawn) [Example 107, 3-(7-Cyclopropyl-1,4-dimethyl-1H-benzotriazol-5-yl)-3-(7-{[(2R,5S)-2-ethyl-5-methyl-2,3-dihydropyrido[2,3-f][1,4]oxazepin-4(5H)-yl]methyl}-2,3-dihydro-1-benzofuran-5-yl)propanoic acid] were 7.52 to 8.00 and > 5.
Taken in the same sequence, the figures for `CC[C@@H]1CN(Cc2cc([C@H](CC(=O)O)c3cc(OC(F)F)c4c(nnn4C)c3C)cc3ccsc23)S(=O)(=O)c2cc(Cl)cnc2O1` [Example 108, (3S)-3-(7-{[(4R)-8-Chloro-4-ethyl-1,1-dioxido-3,4-dihydro-2H-pyrido[2,3-b][1,4,5]oxathiazepin-2-yl]methyl}-1-benzothiophen-5-yl)-3-[7-(difluoromethoxy)-1,4-dimethyl-1H-benzotriazol-5-yl]propanoic acid] were 7.00 to 7.52 and > 5.
In data set [1], `CC[C@@H]1CN(Cc2cc(C(CC(=O)O)c3cc(C4CC4)c4c(nnn4C)c3C)cc3ccoc23)[C@@H](C)c2ncccc2O1` (stereo partly drawn) [Example 109, 3-(7-Cyclopropyl-1,4-dimethyl-1H-benzotriazol-5-yl)-3-(7-{[(2R,5S)-2-ethyl-5-methyl-2,3-dihydropyrido[2,3-f][1,4]oxazepin-4(5H)-yl]methyl}-1-benzofuran-5-yl)propanoic acid] showed a pIC50 of 7.00 to 7.52. For the same compound, in data set [2], the fold induction at 0.4 µM was > 5.
In the same order, the values of `CC[C@@H]1CN(Cc2cc(C(CC(=O)O)c3cc(C4CC4)c4c(nnn4C)c3C)cc3ccoc23)S(=O)(=O)c2cc(Cl)cnc2O1` (stereo partly drawn) [Example 110, 3-(7-{[(4R)-8-Chloro-4-ethyl-1,1-dioxido-3,4-dihydro-2H-pyrido[2,3-b][1,4,5]oxathiazepin-2-yl]methyl}-1-benzofuran-5-yl)-3-(7-cyclopropyl-1,4-dimethyl-1H-benzotriazol-5-yl)propanoic acid] are 7.00 to 7.52 and > 5.
Regarding `CCOc1ccc2c(n1)O[C@H](CC)CN(Cc1cc([C@H](CC(=O)O)c3ccc4c(nnn4C)c3C)cc3ccsc13)S2(=O)=O` [Example 111, (3S)-3-(1,4-Dimethyl-1H-benzotriazol-5-yl)-3-(7-{[(4R)-7-ethoxy-4-ethyl-1,1-dioxido-3,4-dihydro-2H-pyrido[2,3-b][1,4,5]oxathiazepin-2-yl]methyl}-1-benzothiophen-5-yl)propanoic acid], in data set [1], the pIC50 was ≥ 8.00. The fold induction at 0.4 µM in data set [2] is 3 to 5.
Turning to `CCOc1ccc2c(n1)O[C@H](CC)CN(Cc1cc([C@@H](CC(=O)O)c3ccc4c(nnn4C)c3C)cc3ccsc13)S2(=O)=O` [Example 112, (3R)-3-(1,4-Dimethyl-1H-benzotriazol-5-yl)-3-(7-{[(4R)-7-ethoxy-4-ethyl-1,1-dioxido-3,4-dihydro-2H-pyrido[2,3-b][1,4,5]oxathiazepin-2-yl]methyl}-1-benzothiophen-5-yl)propanoic acid], the pIC50 in data set [1] is ≥ 8.00. For the same compound, the fold induction at 0.4 µM in data set [2] lay within 3 to 5.

(Values after US20250092064A1, “BENZOTRIAZOLE COMPOUND” (DAIICHI SANKYO COMPANY, LIMITED, priority 2022, published 2025).)
